# Data taken from article PMC11674305, “Inhibition of Neural Crest Cell Migration by Strobilurin Fungicides and Other Mitochondrial Toxicants” (Cells, 2024).
# Tests used:
# neural crest cells (NCC) = experiment: Long-term transwell migration assay (18 h pre-exposure, 6 h migration); format: cell-based, human
# Description: Magel et al. (2024): Inhibition of neural crest cells migration by strobilurin fungicides […]
# Figure S11. Prolonged exposure of NCC in a modified transwell assay setup.
# (A) Schematic illustration of the “long-term” transwell migration assay. In the beginning, NCC were plated into the insert of the transwell and treated with potential toxicants. In comparison to the standard transwell set-up, the lower medium compartment was initially not supplemented with FBS. In order to ensure a uniform concentration, picoxystrobin was added to both compartments. Cells were then incubated for 18 h (in the absence of a migration stimulus). Afterwards, 5% FBS was added to the lower compartment, to initiate NCC migration through the membrane pores. After 6 h, the number of cells that reached the downward surface of the membrane was quantified. (B) Result of concentration-dependent picoxystrobin testing in galactose medium in the long-term transwell assay. Cytochalasin D (200 nM) was used as positive control for “inhibited” migration (CytoD). “Unstimulated” migration (no FBS) is also shown. The dotted line at 75% indicates the threshold for inhibited migration. Data are expressed as means ± SEM from 3 independent biological experiments.
# (also on this page, place not known: concentration -dependent long -term dott ed -4Ctrl Transwell migration [% of control ± SEM] CytoDBMC25 Picoxystrobin) […]
# [1] = parameters: species or system human
# Description: Figure 8 Consideration of biokinetics for refined hazard (potency) estimates. (A) Concentration–response curve of the oxygen consumption rate (OCR) in NCCs cultured in galactose medium after a 24 h treatment with picoxystrobin. The highest tested concentration was 2.8 µM (highest non-cytotoxic exposure). Data are shown for two independent experiments (as in Figure 7B). (B) The cMINC assay was performed as in Figure 1, but the NCCs were cultured in galactose medium. The insert box gives picoxystrobin potency data for migration (M) and cytotoxicity (V), and their ratio. Data are expressed as means ± SEM from seven independent experiments. (C) Schematic illustration of the distribution of picoxystrobin in a cell culture well according to the in silico biokinetics prediction model. Data for each compartment are given either as percentage (left) or as concentrations (right) for a nominal concentration of 1 µM. (D) Tabular overview of the distribution of picoxystrobin in the different compartments at a nominal concentration of 1 µM. Mediumt: total medium; Mediumb: bound in medium; Mediumu: unbound in medium; Cellst: total amount in cells; CellsM: mitochondrial compartment; CellsL: lysosomal compartment; CellsR: “rest” of the cells. […] (E) Synoptic overview of predicted and measured concentrations of picoxystrobin. […]
# [2] = cited from earlier work
smiles,measurement,setting,value
"CO/C=C(/C(=O)OC)c1ccccc1COc1cccc(C(F)(F)F)n1 [Picoxystrobin, picoxystrobin]",concentration range at which migration was inhibited,neural crest cells (NCC); 18 h pre-treatment + 6 h migration,~600 nM
same,BMC25,"neural crest cells (NCC); galactose medium, 18 h pre-exposure + 6 h migration",0.6 µM
same,MoE for fetus (nominal data),[1],2-100 fold
same,Henry's law constant,"[2]; at 25 °C, VIVD model input",6 × 10^−4 Pa*m^3*mol⁻^1
same,charge characterization,[2]; model input,neutral
